Values quoted from earlier work in paper PMC9655391 (International Journal of Molecular Sciences, 2022).

Conditions: oral administration; ref [16],[20],[21],[22]

bioavailability: 32%
Compound: CCCCc1nc(Cl)c(CO)n1Cc1ccc(-c2ccccc2-c2nn[nH]n2)cc1 [LP, losartan potassium]
